From patent US20250064886A1, “CARDIOVASCULAR AND CEREBROVASCULAR DRUG AND USE THEREOF” (HANGZHOU ADAMERCK PHARMLABS INC., priority 2021, published 2025)

Legend:
[1] = test system: arteriovenous bypass thrombosis in rats; experiment: Arteriovenous bypass thrombosis in rats (Example 4); format: in vivo, rat; conditions: for Wet weight of thrombus / Dry weight of thrombus: in g (unit assumed)
Method: Grouping: Divided into 5 groups, with 10 animals in each group. The model control group was given with solvent, and the test drug compound (1) and the positive control were given intravenously once a day for consecutive 3 d. The modeling started 30 min after the last dose.
Model preparation: 50 SD male rats were anesthetized with sodium pentobarbital at a dose of 60 mg/kg via ip. The rat was fixed in the supine position, and the skin was incised at the midline of the neck; the fascia and muscle tissues were separated, the left common carotid artery and the right external jugular vein were dissociated, and the arterio-venous (A-V) bypass surgery was performed using the polyethylene tubing with a built-in thread. The arterial clip was used to clamp the proximal end of the carotid artery, and one end of the polyethylene tubing was inserted into the artery, and another end was inserted into the vein, thereby completing the bypass surgery. 30 minutes after the last dose, the arterial clip was opened, and blood flowed from the left common carotid artery to the right external jugular vein through the bypass tubing, and the blood flow formed a bypass circulation, and the thrombus was taken out 15 min later.
Detection index: the blood flow was open after 15 min, the thread was taken out, the residual liquid was sucked dry, the thread attached with thrombus was weighed and the wet weight of thrombus was calculated; the dry weight of thrombus was weighed and calculated after bake-drying in the oven at 50° C. Thrombosis inhibition rate was calculated. Tails were clipped at the end of the experiment to detect bleeding time.

[2] = test system: rats; experiment: Bleeding time in rats, tail clipping (Example 4); format: in vivo, rat
Method: Grouping: Divided into 5 groups, with 10 animals in each group. […] The modeling started 30 min after the last dose. Detection index: the blood flow was open after 15 min, the thread was taken out, the residual liquid was sucked dry, the thread attached with thrombus was weighed and the wet weight of thrombus was calculated; the dry weight of thrombus was weighed and calculated after bake-drying in the oven at 50° C. Thrombosis inhibition rate was calculated. Tails were clipped at the end of the experiment to detect bleeding time.

[3] = test system: rats with focal cerebral ischemia (MCAO)/reperfusion; experiment: Preventative administration, cerebral ischemia-reperfusion injury MCAO/R in rats (Example 5); format: in vivo, rat; conditions: preventative; for Cerebral infarction rate (%): tail vein 3 days
Method: Experimental method: SD rats were randomly divided into six groups, i.e., pseudosurgery group, model control group, positive control drug ozagre (6 mg/kg) group, and administration drug compound (1) high-dose (67.5 mg/kg) group, medium-dose (22.5 mg/kg) group, and low-dose (7.5 mg/kg) group. The administration group was pre-administered via tail vein injection, while the pseudosurgery group and model control group were given equal volumes of physiological saline once a day for 3 consecutive days. 10 minutes after the last administration, a rat MCAO/R model was established and performed reperfusion 2 hours post ischemia. 24 hours after MCAO reperfusion, the neurobehavioral scores of rats were performed to determine their neurological function; the cerebral infarction rate and cerebral water content in rats were determined using 2,3,5-triphenyltetrazolium chloride (TTC) staining method.

[4] = test system: GPX4 mRNA; experiment: GPX4 mRNA expression (real time PCR) in Erastin-induced neuronal cells (Example 8); format: cell-based, rat; conditions: Erastin 50 μM
Method: (§1) Experimental method: Primary neuron cells were incubated in a medium containing Erastin (final concentration of 50 μM) for 24 hours, and then incubated in a medium containing different concentrations of the test drug and Erastin (final concentration of 50 μM) for another 24 hours. After incubation, Real time PCR was used to detect mRNA expression of GPX4 in each group of cells, CCK8 assay was used to detect cell viability in each group of cells, C11-BODIPY probe method was used to detect intracellular lipid ROS levels in each group of cells, and PGSK probe method was used to detect iron content in cells.
(§2) The experimental data were expressed in means±SD, and statistical differences between groups were determined using one-way ANOVA and Tukey's test, with p-values less than 0.05 considered significant.
After incubation, real time PCR was used to detect the mRNA expression of GPX4 in each group of cells. The results were presented as Mean±SD. Compared with the control group, ***p<0.0001; Compared with the model group, #p<0.05, […].

[5] = test system: vascular endothelial injury induced thrombosis model in zebrafish; experiment: Preventative effect on vascular endothelial injury induced thrombosis, ponatinib zebrafish model (Example 1); format: in vivo; conditions: 4.00 ng/tail injected
Method: Experimental method: 420 tails of 5 dpf wild type AB strain zebrafish were randomly selected and placed in a six-well plate, with 30 fish per well (experimental group). The fish were injected with compound (1), compound (2), compound (3), compound (4), compound (5), compound (6), compound (7), compound (8), compound (9), compound (10), and compound (11) (structural formula shown in Table 1) at a dose of 4.00 ng/tail, with positive control drug acetylsalicylic acid being administered by dissolving it in water at a concentration of 30.0 µg/mL. Normal control group (i.e. zebrafish treated with standard diluted water) and model control group were set up, with a capacity of 3 mL per well (experimental group). Except for normal control group, the remaining experimental groups were all given Punatinib by dissolving it in water to induce vascular endothelial injury induced thrombosis model in zebrafish. The zebrafish were stained with o-dianisidine after co-treatment with ponatinib and samples for a period of time under incubation conditions at 28° C.
After staining, 10 zebrafish in each group were randomly selected and photographed under the microscope, and the intensity of cardiac erythrocyte staining in zebrafish was analyzed using NIS-Elements D 3.20 advanced image-processing software, and the samples were evaluated for the preventative effect on vascular endothelial injury induced thrombosis by the statistical results of cardiac erythrocyte staining intensity.
The preventative effect on thrombosis is calculated as follows: […]
Statistical analysis was performed using SPSS software, and p<0.05 indicates significant differences

[6] = test system: iron content in Erastin-induced neuronal cells; experiment: Iron content (PGSK probe) in Erastin-induced neuronal cells (Example 8); format: cell-based, rat; conditions: Erastin 50 μM
Method: as §1, §2
After incubation, the PGSK probe method was used to detect the intracellular iron content. The results were presented as Mean±SD. Compared with the control group, ***p<0.0001; Compared with the model group, #p<0.05, ##p<0.01.

## CC(=O)N[C@H](CSCC1OC2OC3C(CSC[C@@H](NC(C)=O)C(=O)[O-])OC(OC4C(CSC[C@@H](NC(C)=O)C(=O)[O-])OC(OC5C(CSC[C@@H](NC(C)=O)C(=O)[O-])OC(OC6C(CSC[C@@H](NC(C)=O)C(=O)[O-])OC(OC7C(CSC[C@@H](NC(C)=O)C(=O)[O-])OC(OC8C(CSC[C@@H](NC(C)=O)C(=O)[O-])OC(OC9C(CSC[C@@H](NC(C)=O)C(=O)[O-])OC(OC1C(O)C2O)C(O)C9O)C(O)C8O)C(O)C7O)C(O)C6O)C(O)C5O)C(O)C4O)C(O)C3O)C(=O)[O-].[Na+].[Na+].[Na+].[Na+].[Na+].[Na+].[Na+].[Na+] (stereo partly shown) [Compound (1)]
[1]; 10 mg/kg i.v.
  Dry weight inhibition rate (%): 15.9%
  Wet weight inhibition rate (%): 19.4%
[1]; 10 mg/kg i.v. once a day 3 d, x ± s, n = 10
  Wet weight of thrombus: 0.0254 ± 0.0042
[1]; 10 mg/kg i.v. once a day 3 d
  Dry weight of thrombus: 0.0069 ± 0.0014
[1]; 20 mg/kg i.v.
  Dry weight inhibition rate (%): 26.8%
  Wet weight inhibition rate (%): 21.9%
[1]; 20 mg/kg i.v. once a day 3 d
  Dry weight of thrombus: 0.006 ± 0.0014
  Wet weight of thrombus: 0.0246 ± 0.0045
[1]; 40 mg/kg i.v.
  Dry weight inhibition rate (%): 37.8%
  Wet weight inhibition rate (%): 34.3%
[1]; 40 mg/kg i.v. once a day 3 d
  Dry weight of thrombus: 0.0051 ± 0.0011
  Wet weight of thrombus: 0.0207 ± 0.0041
[2]; 10 mg/kg i.v., x ± s, n = 10
  Bleeding time: 403.4 ± 185.1 s
[2]; 20 mg/kg i.v.
  Bleeding time: 422.6 ± 205.7 s
[2]; 40 mg/kg i.v.
  Bleeding time: 428.4 ± 185.6 s
[2]; intravenous, compared with model control group
  Effect on the bleeding time in rats, in words: no significant effect
[3]; 7.5 mg/kg (low-dose)
  Cerebral infarction rate (%): 15.18 ± 4.74 %
[3]; 7.5 mg/kg
  Behavioral score: 2.00 ± 1.07
  Cerebral water content (%): 80.16 ± 1.03%
[3]; 22.5 mg/kg (medium-dose)
  Cerebral infarction rate (%): 13.93 ± 6.99 %
[3]; 22.5 mg/kg
  Behavioral score: 1.87 ± 0.64
  Cerebral water content (%): 79.01 ± 1.27 %
[3]; 67.5 mg/kg (high-dose)
  Cerebral infarction rate (%): 12.28 ± 10.29 %
[3]; 67.5 mg/kg
  Behavioral score: 1.50 ± 0.53
  Cerebral water content (%): 78.23 ± 1.84 %
[4]; 1 μM, control about 1.00, Mean±SD
  Expression of GPX4 mRNA: 0.4845 ± 0.06^
[4]; 2.5 μM
  Expression of GPX4 mRNA: 0.5759 ± 0.07^
[4]; 5 μM
  Expression of GPX4 mRNA: 0.6469 ± 0.08^#
[4]; 10 μM
  Expression of GPX4 mRNA: 0.7093 ± 0.15^##
[4]; 20 μM
  Expression of GPX4 mRNA: 0.7664 ± 0.08^##
[4]; 40 μM
  Expression of GPX4 mRNA: 0.8503 ± 0.06^##
[5]
  Preventative effect on thrombosis (%): 66%
[5]; n = 10
  Cardiac erythrocyte staining intensity (pixels, mean ± SE): 4397 ± 454 pixels
[5]; n = 10, listed as compound (1)
  Cardiac erythrocyte staining intensity (pixels, mean ± SE): 4397 pixels
[6]; 1 μM, control = 100, PGSK fluorescence, weaker = more iron
  Iron content (PGSK probe): 61.06 ± 7.12
[6]; 2.5 μM
  Iron content (PGSK probe): 66.81 ± 7.21
[6]; 5 μM
  Iron content (PGSK probe): 71.85 ± 4.47
[6]; 10 μM
  Iron content (PGSK probe): 77.52 ± 12.88^#
[6]; 20 μM
  Iron content (PGSK probe): 82.16 ± 6.86^##
[6]; 40 μM
  Iron content (PGSK probe): 86.69 ± 8.01^##
